Measurements as given in patent US20260216169A1, “NAPHTHYLAMIDE COMPOUND, AND PREPARATION METHOD THEREFOR AND USE THEREOF” (SHENZHEN CHIPSCREEN BIOSCIENCES CO., LTD., priority 2022, published 2026).

Columns and labels:
[1] = Brain permeation assay in mice; assay type: in vivo; settings: B/C, mouse, oral; female mice, 5 mg/kg intragastric, 4 h after administration; read-out: Brain permeation (ratio of compound concentration in brain tissue to concentration in plasma)
Experimental: The objective of this example was to test whether the compounds of the present disclosure are able to cross the blood-brain barrier (BBB). The compounds of the present disclosure were dissolved in a vehicle containing 5% dimethyl sulfoxide, 60% 1,3-propanediol, and 35% purified water, and intragastrically administered to B/C female mice aged 6 weeks (purchased from Guangdong Medical Laboratory Animal Center) at 5 mg/kg. The animals were sacrificed 4 h after the administration, and blood and brain tissue samples were collected. The blood samples were anticoagulated with K2-EDTA and centrifuged at 5000 rpm for 5 min to separate plasma. The brain tissue samples were accurately weighed and homogenized with a certain amount of phosphate-buffered saline (PBS) solution, and the biological samples were stored at −80° C. before analysis. After sample extraction, the compound concentration was determined using a liquid chromatography-tandem mass spectrometry (LC-MS/MS) system. Brain permeation was defined as the ratio of the compound concentration in brain tissue to the concentration in plasma.

VEGFR2 = biological target: T1, VEGFR2 (Homo sapiens, UniProt P35968); assay: HTRF KinEASE test against VEGFR2, reported as relative selectivity IC50-VEGFR2/IC50-Aurora B; assay type: biochemical; settings: ratio of IC50 against VEGFR2 to IC50 against Aurora B
T1 construct: purchased Carna 08-191
T1 sequence (P35968 790-1356 limits assumed): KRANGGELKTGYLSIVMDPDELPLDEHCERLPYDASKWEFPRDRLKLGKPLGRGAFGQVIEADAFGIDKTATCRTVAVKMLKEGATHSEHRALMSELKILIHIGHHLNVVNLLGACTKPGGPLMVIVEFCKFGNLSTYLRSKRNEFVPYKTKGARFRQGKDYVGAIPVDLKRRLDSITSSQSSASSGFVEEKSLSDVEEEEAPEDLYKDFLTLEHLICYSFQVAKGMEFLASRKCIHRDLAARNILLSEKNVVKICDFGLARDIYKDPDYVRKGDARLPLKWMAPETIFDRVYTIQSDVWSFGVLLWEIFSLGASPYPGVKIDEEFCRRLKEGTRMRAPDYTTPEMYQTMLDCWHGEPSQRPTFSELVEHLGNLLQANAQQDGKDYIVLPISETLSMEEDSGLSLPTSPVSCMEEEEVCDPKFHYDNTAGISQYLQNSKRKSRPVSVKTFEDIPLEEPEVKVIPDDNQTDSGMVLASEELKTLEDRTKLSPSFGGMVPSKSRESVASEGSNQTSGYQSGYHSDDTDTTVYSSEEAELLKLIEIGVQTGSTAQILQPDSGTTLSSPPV
Experimental: (§1) Preparation of working solutions of compounds in DMSO with gradient concentrations: 0.2 mM solutions of the compounds in DMSO were prepared and serially diluted with DMSO to form working solutions with 10 gradient concentrations (corresponding to final compound concentrations of 1000 nM, 300 nM, 100 nM, 30 nM, 10 nM, 3 nM, 1 nM, 0.3 nM, 0.1 nM, and 0.03 nM in the reaction system).
(§2) Tests of inhibitory activity against Aurora B kinase and VEGFR2: The half maximal inhibitory concentrations (IC50) of the compounds against Aurora B kinase and VEGFR2 were determined using HTRF KinEASE-TK kit (Cisbio, Cat #62TKOPEC) and HTRF KinEASE-STK kit (Cisbio, Cat #61ST2BLE). A 2× kinase & Metal solution (Aurora B/Cat #05-102 and VEGFR2/Cat #08-191, both purchased from Carna) and a 2× Substrate & ATP solution (for Aurora B and VEGFR2, substrates S2 and TK were used, respectively) were prepared according to the kit instructions. The working solutions of the test compounds with gradient concentrations were added to a 384-well plate at 25 nL/well, and 2.5 μL of the 2× kinase & Metal solution was added to each well. The plate was sealed with a plate-sealing film, well shaken, centrifuged, and then incubated at 25° C. for 10 min. Then, the 2× Substrate & ATP solution was added at 2.5 μL/well, and the plate was incubated again at 25° C. for 30 min. Finally, a 2× XL665 & Antibody kinase detection reaction solution was added at 5 μL/well. After the plate was incubated at 25° C. for 60 min, the fluorescence signals at wavelengths of 665 nm and 620 nm in each well were measured by a microplate reader.
(§3) The 665 nm/620 nm fluorescence signal ratio (X) of each well was calculated. With the compound-free well as a negative control (Y) and the enzyme-free well as a positive control (Z), the inhibition rate of the compound in each test well against the corresponding kinase was calculated using the formula: inhibition (%)=100%−(X−Z)/(Y−Z)×100%, and the half maximal inhibitory concentration (IC50) of each compound against the corresponding kinase was calculated by GraphPad 7.0 software.

Molt-4 cells = assay: Effects on tumor cell cycle, PI staining and flow cytometry; assay type: cell-based, human; settings: 48 h
Text: When the activity of Aurora B kinase is inhibited in tumor cells, the arrangement and separation of chromosomes are blocked, leading to cytokinesis failure and the formation of tetraploid or polyploid cells. Moreover, severe genomic instability and mitotic catastrophe result in apoptosis. The intracellular DNA content can be mapped with propidium iodide (PI), a fluorescent dye that specifically binds to nucleic acid, so that cell states can be distinguished into sub-G0/G1 (apoptosis), G0/G1, S, G2/M (tetraploid), and polyploid states.
Experimental process: Molt-4 cells (human acute lymphoblastic leukemia cells, CRL-1582) were purchased from the American Type Culture Collection (ATCC). Molt-4 cells in the logarithmic growth phase were collected from suspension culture and counted. The cells were seeded into a 6-well plate at 10^6 cells/well and cultured overnight under normal conditions. The test compounds were prepared as 1 mM and 3 mM solutions in DMSO, and the solutions in DMSO were diluted 50-fold with culture medium. Finally, the above solutions were added to the culture system in a volume ratio of 1:19, achieving a final compound concentration of 1 μM or 3 μM in each well. After 48 h of incubation, the cells were collected by centrifugation. Each cell sample was resuspended in 300 μL of PBS, and the suspension was added dropwise to 700 μL of pre-cooled absolute ethanol. Then the mixture was gently inverted several times for thorough mixing to complete cell collection and fixation. The samples were left to stand at 4° C. for more than 12 h and then analyzed by flow cytometry.
A working dye solution was prepared by homogeneously mixing PBS, a 10 mg/mL PI stock solution, and a 10 mg/mL RNase A solution in a ratio of 1000:5:2. The fixed cell samples were centrifuged at 4° C. and 1000 rpm for 10 min. The supernatants were completely removed using a pipette, and the cells were washed twice with PBS and resuspended in the above working dye solution at […]. After incubation in a dark place at 37° C. for 30 min, the cells were filtered using a 200-mesh stainless steel strainer, and the filtrate was loaded onto a flow cytometer for cell cycle analysis (10,000 cells counted per sample).
Histograms showing DNA contents were obtained from the flow cytometry analysis, and the cell cycle distribution in each sample was analyzed using the flow cytometry data analysis software FlowJo. The mean (X) and standard deviation (SD) were calculated, and data were represented as X±SD. The apoptosis and the proportions of tetraploid and polyploid cells after Molt-4 cells were treated with different doses of the test compounds are shown in Table 3 below.

Aurora B kinase [2] = biological target: T2, Aurora B kinase (Homo sapiens, UniProt Q96GD4); assay: HTRF KinEASE test of inhibitory activity against Aurora B kinase; assay type: biochemical; design: purchased Carna 05-102; settings: Carna kinase, substrate S2
Experimental: as §1, §2, §3
Target sequence in this assay (Q96GD4 whole entry): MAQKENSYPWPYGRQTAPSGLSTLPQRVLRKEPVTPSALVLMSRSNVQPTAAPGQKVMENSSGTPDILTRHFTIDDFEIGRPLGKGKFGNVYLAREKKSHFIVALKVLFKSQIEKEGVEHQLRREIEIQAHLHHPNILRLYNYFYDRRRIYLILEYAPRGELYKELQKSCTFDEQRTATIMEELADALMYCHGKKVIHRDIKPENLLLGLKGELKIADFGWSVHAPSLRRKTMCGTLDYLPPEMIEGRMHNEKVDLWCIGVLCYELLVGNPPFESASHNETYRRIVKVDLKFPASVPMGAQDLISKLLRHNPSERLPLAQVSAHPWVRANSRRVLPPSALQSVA
Target sequence in this assay (Q9NQS7 803-916 partner limits assumed): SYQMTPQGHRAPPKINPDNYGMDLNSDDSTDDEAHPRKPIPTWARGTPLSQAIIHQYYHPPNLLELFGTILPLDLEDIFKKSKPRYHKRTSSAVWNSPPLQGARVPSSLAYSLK

PANC02 cells = assay: Anti-tumor efficacy in PANC02 mouse pancreatic cancer graft tumor model; assay type: in vivo, C57BL/6 mice; settings: for Mean tumor volumes (mm^3 ± SEM), Day 9 / Tumor volume inhibition rate (% TGI), Day 9: 10 mg/kg/day intragastric once daily; for Mean tumor volumes (mm^3 ± SEM), Day 0: 10 mg/kg/day intragastric, grouping and administration Day 0
Text: A mouse PANC02 pancreatic cancer graft tumor model was constructed: the experimental animals were C57BL/6 mice (female, 6 weeks old), the tumor cells were PANC02 cells (mouse pancreatic cancer cells), and the cell culture medium was a DMEM culture medium containing 1% double antibiotic and 10% fetal bovine serum. PANC02 cells in the logarithmic growth phase and in good condition were collected and inoculated subcutaneously into the left flank of C57BL/6 mice at a concentration of 0.9×10^6 cells/0.2 mL. The long diameters (a, mm) and short diameters (b, mm) of the tumors were measured using a vernier caliper, and tumor volume (V, mm^3) was calculated using the formula: V=½a×b^2. Tumor volume was measured 2-3 times weekly using the vernier caliper. When the mean tumor volumes of the mice reached 190 mm^3 or above, the mice were divided into 4 groups of 8 and dosed, and the day of grouping was represented by day 0. The groups were as follows: a solvent control group (0.2% aqueous solution of CMC-Na), a compound I-9 group (10 mg/kg/day), a control molecule 01 (chiauranib) group (10 mg/kg/day), and a control molecule 02 group (10 mg/kg/day). All four groups received intragastric administration once daily for consecutive days, and the experiment was terminated on the day of the last dose.
The tumor volume results were represented as mean and standard error (Mean±S.E.M). Intergroup comparisons were performed using the Mann Whitney test. If p<0.05, the difference is considered to be statistically significant. The tumor volume inhibition rate (TGI) was calculated using the formula: TGI (%)=[1−(Ti−T0)/(Vi−V0)]×100% (Ti: mean tumor volume of the treatment group on day i of administration; TO: mean tumor volume of the treatment group on day 0 of administration; Vi: mean tumor volume of the solvent control group on day i of administration; V0: mean tumor volume of the solvent control group on day 0 of administration).

Aurora B kinase [3] = biological target: T2, Aurora B kinase; assay: In vitro cytological assays of Aurora B kinase inhibition; assay type: cell-based; design: dose or concentration left out as unconfirmed
Target sequence in this assay (Q96GD4 whole entry): as the sequence (Q96GD4 whole entry) above

[4] = human, 65-mg treatment group, phase I; cited from earlier work

Row | Kp at 4 h [1] | Selectivity for Aurora B IC50-VEGFR2/IC50-Aurora B (VEGFR2) | IC50 (Aurora B kinase [2]) [nM] | SMILES | Apoptosis (%) DNA < 2N (Molt-4 cells; dose 1 μM) [%] | Polyploid (%) DNA > 4N (Molt-4 cells; dose 1 μM) [%] | Tetraploid (%) DNA = 4N (Molt-4 cells; dose 1 μM) [%] | Total (apoptosis + tetraploid + polyploid) (Molt-4 cells; dose 1 μM) | Apoptosis (%) DNA < 2N (Molt-4 cells; dose 3 μM) [%] | Polyploid (%) DNA > 4N (Molt-4 cells; dose 3 μM) [%] | Tetraploid (%) DNA = 4N (Molt-4 cells; dose 3 μM) [%] | Total (apoptosis + tetraploid + polyploid) (Molt-4 cells; dose 3 μM) | Mean tumor volumes (mm^3 ± SEM), Day 9 (PANC02 cells) [mm^3] | Tumor volume inhibition rate (% TGI), Day 9 (PANC02 cells) [%] | Mean tumor volumes (mm^3 ± SEM), Day 0 (PANC02 cells) [mm^3] | further results
1 | 0.6 | 17.57 | 1.79 | COc1ccc2c(Oc3ccc4c(C(=O)Nc5ccc(F)c(F)c5N)cccc4c3)ccnc2c1 [Compound I-9] | 24.60 ± 8.06 | 55.15 ± 15.20 | 6.07 ± 7.25 | 85.82 | 21.35 ± 5.87 | 56.10 ± 12.02 | 5.39 ± 6.10 | 82.84 | 145.9 ± 38.5 | 114.0 | 193.9 ± 38.5 | Tumor volume compared with solvent control group (PANC02 cells; Day 9, Mann Whitney test, p<0.001): significantly reduced tumor volumes; Tumor volume compared with control molecule 01 (chiauranib) group (PANC02 cells; Day 9, Mann Whitney test, p<0.01): significantly reduced tumor volumes; Tumor volume compared with control molecule 02 group (PANC02 cells; Day 9, Mann Whitney test, p<0.05): significantly reduced tumor volumes
2 | 0.28 | 1.54 | 10.8 | COc1ccc2c(Oc3ccc4c(C(=O)Nc5ccccc5N)cccc4c3)ccnc2c1 [Control molecule 01, chiauranib, reference compound] | 10.23 ± 0.67 | 3.73 ± 2.95 | 14.80 ± 6.51 | 28.76 | 16.40 ± 6.65 | 6.40 ± 5.66 | 16.25 ± 8.13 | 39.05 | 278.4 ± 35.6 | 74.6 | 191.5 ± 33.9 | Inhibitory activity against Aurora B kinase (Aurora B kinase [3]): relatively weak inhibitory activity; Tumor volume inhibition rate (% TGI), Day 9 (PANC02 cells; listed as control molecule 01): 74.6%; Dose-limiting toxicity (DLT) [4]: grade 3 hypertension
3 | 0.27 | 4.16 | 2.08 | COc1ccc2c(Oc3ccc4c(C(=O)Nc5ccc(F)cc5N)cccc4c3)ccnc2c1 [Control molecule 02, reference compound] | 10.07 ± 1.18 | 7.94 ± 3.77 | 18.05 ± 0.35 | 36.06 | 23.80 ± 2.26 | 55.70 ± 1.41 | 8.40 ± 4.96 | 87.90 | 299.3 ± 68.2 | 68.9 | 192.7 ± 36 | Tumor volume inhibition rate (% TGI), Day 9 (PANC02 cells; listed as control molecule 02): 68.9%
